Data: patent publication US20090005384A1, “Method for Producing Adsorptive Porous Body” (Kowa Co., Ltd, priority 2005, published 2009)

How the values were obtained:
[1] = Adsorption test to porous material; format: physicochemical; settings: for Amount of adsorbed Compound A: shaken for two hours
Procedure: To a solution prepared by completely dissolving 1.5 mg of Compound A in 1.5 mL of dichloromethane, 15 mg of porous material (light anhydrous silicic acid (Sylysia 350, produced by Fuji Silysia Chemical Co., Ltd.) or silicon dioxide (Sylysia 530, produced by Fuji Silysia Chemical Co., Ltd.) was dispersed, and this mixture was shaken for two hours using Roter RT-50 (TAITEC) and an amount of Compound A which adsorbed simply to the light anhydrous silicic acid or silicon dioxide (μg/mg porous material) was calculated by measuring the absorbance (280 nm) of a filtrate obtained by filtering with a membrane filter (0.45 μm PTFE). The amount of Compound A which adsorbed simply to the light anhydrous silicic acid or silicon dioxide ([…] porous material) was calculated by the following computational expression.
Concentration of Compound A in the filtrate (μg/mL)=ABS÷Slope of analytical curve×Dilution ratio
Here, ABS represents the absorbance.
Amount of adsorbed Compound A (g/mg porous material)=(Concentration of Compound A before the porous material was dispersed (g/mL)−Concentration of Compound A in the filtrate (g/mL))×Volume of Compound A solution (mL)÷Mass of porous material (mg)
Calculation was also conducted using ethanol in place of dichloromethane as a comparison.

[2] = Differential scanning calorimetry analysis; format: physicochemical; settings: when dichloromethane was used
[3] = system: interleukin-lp production; settings: known from Patent Document 1; cited from earlier work
[4] = cited from earlier work

Amount of adsorbed Compound A ([1]; Dichloromethane, light anhydrous silicic acid (Sylysia 350)): 17.6 μg/mg porous material | Amount of adsorbed Compound A ([1]; Dichloromethane, silicon dioxide (Sylysia 530)): 24.8 μg/mg porous material | Amount of adsorbed Compound A ([1]; Ethanol, light anhydrous silicic acid (Sylysia 350)): 0.0 μg/mg porous material | Amount of adsorbed Compound A ([1]; Ethanol, silicon dioxide (Sylysia 530)): 0.0 μg/mg porous material | Adsorption of Compound A to the porous material (in words) ([1]; dichloromethane, light anhydrous silicic acid): adsorbed | Adsorption of Compound A to the porous material (in words) ([1]; dichloromethane, silicon dioxide): adsorbed | Adsorption of Compound A to the porous material (in words) ([1]; ethanol, light anhydrous silicic acid): did not adsorb | Adsorption of Compound A to the porous material (in words) ([1]; ethanol, silicon dioxide): did not adsorb | Solid state of Compound A [2]: existed in amorphous state
Compound: CSc1ccc(-c2nn(Cc3ccccc3)c(=O)cc2-c2ccc(Cl)cc2)cc1 [Compound A, 2-benzyl-5-(4-chlorophenyl)-6-[4-(methylthio)phenyl]-2H-pyridazin-3-one]
interleukin-lp production suppressive effect [3]: excellent | Solubility in water [4]: extremely insoluble
